System: Wistar rats subjected to a cholesterol-rich (2%) diet
Assay: Hypocholesterolemic activity in rats on a cholesterol-rich diet (plasma total cholesterol)
Type: in vivo, rat
Conditions: for Diminution of plasma total cholesterol in rats: cholesterol-rich (2%) diet
Procedure: Plasma levels of total cholesterol were measured with a standard colorimetric enzymatic method. […] Plasma levels of total cholesterol were determined at one-week intervals. Blood was collected from a tail vein.

CC(C)c1c(C(=O)Nc2ccccc2)c(-c2ccccc2)c(-c2ccc(F)cc2)n1CC[C@@H](O)C[C@@H](O)CC(=O)O [Atorvastatin, atorvastatin]
Reduction of the cholesterolemia values (in words) (doses of 5 and 10 mg/kg, starting from the first week of treatment): significant and dose-dependent reduction | Maximum reduction of the cholesterolemia values (highest dose (10 mg/kg, as calcium salt, per os daily), peak at 2 weeks, constant in the successive weeks): 80%

Cc1nc(-c2ccc(OCC(C)C)c(C#N)c2)sc1C(=O)O [Febuxostat, febuxostat]
Diminution of plasma total cholesterol in rats (1 mg/Kg orally by gavage once per day for 4 weeks): No diminution | Diminution of plasma total cholesterol in rats (5 mg/Kg orally by gavage once per day for 4 weeks): No diminution | Diminution of plasma total cholesterol in rats ([…] orally by gavage once per day for 4 weeks): No diminution | Effect on cholesterol levels in the 4 weeks of observation (highest dose, 5 mg/kg per day, per os, Wistar rats, cholesterol-rich diet): did not significantly modify

Source: patent US20130116291A1, “ASSOCIATION OF XANTHINE OXIDASE INHIBITORS AND STATINS AND USE THEREOF” (Menarini International Operations Luxembourg S.A., priority 2010, published 2013)
